Results as given in patent publication EP0004335A2, “Prostacyclin analogs, process and intermediates for their preparation and their use as medicines” (HOECHST AKTIENGESELLSCHAFT, priority 1978, dated 1979).

Test system: durch Arachidonsäure in Humanblut (in vitro) induzierten Thrombocytenaggregation
Test: Inhibition of arachidonic acid-induced platelet aggregation in human blood (in vitro)
Assay type: cell-based
Settings: Konzentration, die eine Aggregation von 50% der vorhandenen Thrombocyten verhindert
Source text: Die Thrombocyten aggregationshemmende Wirkung der erfindungsgemäßen Verbindungen wurde an der durch Arachidonsäure in Humanblut (in vitro) induzierten Thrombocytenaggregation ermittelt. In der folgenden Tabelle ist die Konzentration an dem jeweiligen Prostacyclin-Derivat angegeben, die eine Aggregation von 50% der vorhandenen Thrombocyten verhindert (IC50).

IC50	SMILES
10 µM	COC(=O)CCCC=C1CC2C(CC(O)C2C=CC(O)C(C)(C)OC2CCCCC2)O1 (stereo not drawn) [Beispiel 2 e), 16-Cyclohexyloxy-16-methyl-18,19-20-trinor-PGI -methylester]
1.2 µM	COCCC(C)(C)C(O)C=CC1C(O)CC2OC(=CCCCC(=O)O)CC21 (stereo not drawn) [Beispiel 3 a), Kaliumsalz des 16,16-Dimethyl-19-oxa-PGI2]
0.54 µM	CCOCC(C)(C)C(O)C=CC1C(O)CC2OC(=CCCCC(=O)O)CC21 (stereo not drawn) [Beispiel 3 b), Natriumsalz des 16,16-Dimethyl-18-oxa-PGI2]
